Source: the NIST ThermoML archive (doi:10.1016/j.tca.2008.07.001)
± gives the expanded uncertainty stated by the source.

Columns and labels:
[1] = refractive index (Na D-line) (dimensionless); conditions: 298.15 K; 101.33 kPa; Liquid; Standard Abbe refractometry
[2] = 298.15 K; 101.33 kPa; Liquid; Pycnometric method

refractive index [1]: 1.4712 ± 0.0008
mass density [2]: 1052.25 ± 1.1 kg/m3
SMILES: CN1CCN(C)C1=O [1,3-dimethyl-2-imidazolidinone]
